This is an account of results in paper PMC4335513 (Critical Care, 2015).

Series [1] can be described thus: Plasma pharmacokinetics in critically ill ICU patients (DALI study), noncompartmental analysis. The format is in vivo, human. On the procedure: The Defining Antibiotic Levels in Intensive care unit patients (DALI) study was a prospective, multicenter PK point-prevalence study. The protocol has been published in detail previously, and the participating investigators are listed in Additional file 1).
The choice of antifungal agent and dosing was at the discretion of the treating clinician. Each patient had three blood samples taken: blood sample A was a peak concentration taken 30 minutes after completion of intravenous infusion; blood sample B was a mid-dose blood sample taken 50% of the way through a dosing interval; and blood sample C was a pre-dose concentration taken at the end of a dosing interval (within 30 minutes of the next dose).
The stationary phase was a Kinetex C8 (50 × 2.10 mm, 1.7 μm) UHPLC column (Phenomenex, Torrance, CA, USA).
For anidulafungin analysis, the supernatant was washed with dichloromethane to remove lipid-soluble components. […] The methods were validated for linearity, LLOQ, matrix effects, precision and accuracy, and stock stability by using the FDA criteria for bioanalysis.
Clearance (CL) was calculated by using the equation Dose/AUC0-∞.

A short description of series [2]: Clinical outcome of therapy and mortality at 30 days in ICU patients. The format is in vivo, human. Conditions: for patients with positive clinical outcome: completion of treatment course without change or addition of antifungal therapy; for 30-day mortality: died by day 30; for patients with indeterminate clinical outcome: outcome of therapy could not be judged. On the procedure: (§1) Data collection was performed by trained staff at each participating center and entered into a case report form. Various demographic and clinical data were collected, including age, gender, height, weight, admission diagnosis, presence of extracorporeal circuits (for example, renal replacement therapy), clinical outcome of infection, and mortality at 30 days. A positive clinical outcome of therapy was defined as completion of treatment course without change or addition of antifungal therapy and with no additional antifungals commenced within 48 hours of discontinuation of the therapy, and if the outcome of therapy could not be judged for any reason, it was recorded as indeterminate. Also, organ-function data (including renal function: serum creatinine concentration during studied dosing interval; 24-hour measured urinary creatinine clearance (CrCL) (where available), antibiotic dosing (dose and frequency, time of dosing and sampling, day of antibiotic therapy), and infection data (including known or presumed pathogen and pathogen MIC) were collected.

On the set-up of series [3]: AUC 0–24: unit not given beside the values. Conditions: ICU patients; mean (%CV); ref Liu et al. [25]; cited from earlier work. An excerpt:
Table 2 Comparison of exposures achieved in this study with other studies (mean (%CV)) | column: Anidulafungin / Liu et al. (ICU patients)

Details of series [4]: AUC 0–24: unit not given beside the values. Conditions: healthy volunteers; mean (%CV); ref Liu et al. [25]; cited from earlier work. The text has this:
Table 2 Comparison of exposures achieved in this study with other studies (mean (%CV)) | column: Anidulafungin / Liu et al. (healthy volunteers)

On the set-up of series [5]: AUC 0–24: unit not given beside the values. The conditions noted are these: general patients; mean (%CV); ref Wurthwein et al. [26]; cited from earlier work. An excerpt: Table 2 Comparison of exposures achieved in this study with other studies (mean (%CV)) | column: Caspofungin / Wurthwein et al. (general patients)
Details of series [6]: AUC 0–24: unit not given beside the values. Conditions: healthy volunteers; mean (95% CI); ref Stone et al. [27]; cited from earlier work. An excerpt:
Table 2 Comparison of exposures achieved in this study with other studies (mean (%CV)) | column: Caspofungin / Stone et al. [27]^a (healthy volunteers)

The conditions of series [7]: surgical ICU patients; ref Nguyen et al. [28]; cited from earlier work. An excerpt: However, variability was higher compared with healthy volunteers (Table 2). This may be attributed to underlying pathophysiological changes that occur in ICU patients. The observed anidulafungin variability in AUC0–24, Cmin, and Cmax was not as high as observed in the study by Liu et al., who recruited a larger cohort of surgical ICU patients but was higher than variability observed in healthy volunteers (Table 2). The PK parameter estimates were ...

In another series the test system is C. albicans. The series can be described thus: Pathogen MIC reported for patient isolate. The format is cell-based. The conditions noted are these: Candida albicans. The procedure: as §1
The conditions of series [8]: human, in vivo; cited from earlier work.

Converted amounts (≈) assume the structure as drawn. Like-named read-outs stand apart in the source and are kept apart here. *1 amine or outer side, *2 acyl side, *3 side chain or, on linkers, in order; H or OH if unused. Where a SMILES comes first, the peptide text is derived from it. Bridges are numbered along the chain shown (N, C = ends). [ ]: non-standard residue; d: D form. The star is where a group is joined. pTerphenylCO(4''-OnC5H11) = CCCCCOc1ccc(-c2ccc(-c3ccc(C(=O)*)cc3)cc2)cc1; Orn(4R-OH,5R-OH) = O=C([C@H](C[C@@H](O)[C@@H](O)N[*:3])N[*:1])[*:2]; hTyr(3S-OH,4S-OH) = N[C@H](C(=O)O)[C@H](O)[C@@H](O)c1ccc(O)cc1; Pro(3S-OH,4S-Me) = C[C@H]1CN[C@H](C(=O)O)[C@H]1O; Hyp = O=C(O)[C@@H]1C[C@@H](O)CN1

Broadly, the MIC is the smallest concentration in the dilution series that meets the test's criterion for growth inhibition.

`CCCCCOc1ccc(-c2ccc(-c3ccc(C(=O)N[C@H]4C[C@@H](O)[C@@H](O)NC(=O)[C@@H]5[C@@H](O)[C@@H](C)CN5C(=O)[C@H]([C@@H](C)O)NC(=O)[C@H]([C@H](O)[C@@H](O)c5ccc(O)cc5)NC(=O)[C@@H]5C[C@@H](O)CN5C(=O)[C@H]([C@@H](C)O)NC4=O)cc3)cc2)cc1` [Anidulafungin, anidulafungin] ({pTerphenylCO(4''-OnC5H11)}-[Orn(4R-OH,5R-OH)]T[Hyp][hTyr(3S-OH,4S-OH)]T[Pro(3S-OH,4S-Me)]; lactam 1-C): the “AUC 0–24” value in series [1] (This study, ICU patients, anidulafungin 100 mg, plasma, UHPLC-MS/MS, linear trapezoidal, mean (%CV), n = 9) was 55 (28). Moreover, in series [1] (This study, ICU patients, anidulafungin 100 mg, plasma, observed peak 30 min after end of iv infusion, mean (%CV), n = 9), the C max is recorded as 3.9 (29). The C min in series [1] (This study, ICU patients, anidulafungin 100 mg, plasma, observed pre-dose concentration, mean (%CV), n = 9) is listed as 1.8 (30). Besides, in [2], the “patients with positive clinical outcome” value stood at 67%, the 30-day mortality stood at 11% and the “patients with indeterminate clinical outcome” value is 33%. Also, in series [3], the “AUC 0–24” value is given as 93.0 (41), the C max was 7.7 (56) and the C min was 3.0 (44). In series [4], the “AUC 0–24” value is listed as 105.0 (22), the C max is recorded as 7.0 (22) and the C min is 3.1 (25).
For the molecule `CC[C@H](C)C[C@H](C)CCCCCCCCC(=O)N[C@H]1C[C@@H](O)[C@@H](NCCN)NC(=O)[C@@H]2[C@@H](O)CCN2C(=O)[C@H]([C@H](O)CCN)NC(=O)[C@H]([C@H](O)[C@@H](O)c2ccc(O)cc2)NC(=O)[C@@H]2C[C@@H](O)CN2C(=O)[C@H]([C@@H](C)O)NC1=O` [Caspofungin, caspofungin], the “AUC 0–24” value in series [1] (This study, ICU patients, caspofungin 70 mg (loading dose), 70% sampled on day 1, plasma, UHPLC-MS/MS, mean (%CV)) was 52.0 (53). Moreover, the C max in [1] (This study, ICU patients, caspofungin 70 mg (loading dose), plasma, observed peak, mean (%CV)) is reported as 3.9 (55). For the same molecule, the C min in [1] (This study, ICU patients, caspofungin 70 mg (loading dose), plasma, observed pre-dose, mean (%CV)) was 1.5 (57). Further, in [2], the “patients with positive clinical outcome” value is listed as 43%, the 30-day mortality turned out to be 29% and the “patients with indeterminate clinical outcome” value is 11%. Besides, in series [5], the “AUC 0–24” value is reported as 170.0 (34) and the C max is given as 13.8 (31). Besides, in [6], the “AUC 0–24” value is 97.0 (87–109), the C max is 12.1 (11–13) and the C min is recorded as 1.4 (1.1–1.8). The “Cmin (range observed)” value in [7] was 500 to 4100 ng/mL.
Consider `OC(Cn1cncn1)(Cn1cncn1)c1ccc(F)cc1F` [Fluconazole, fluconazole], for which, in series [1] (human, in vivo), the C max was 20 (14). In addition, the “AUC 0–24” value in [1] (human, in vivo, SD) is reported as 359 (259). In addition, in [2], the “patients with positive clinical outcome” value worked out at 27%, the 30-day mortality was determined as 47% and the “patients with indeterminate clinical outcome” value amounted to 40%. Besides, the lowest concentration to inhibit growth with C. albicans (MIC) was 0.75 µg/mL (≈ 2.45 µM). Further, in series [8], the “AUC 0–24” value is 409 (336–482) and the C max is reported as 25 (22–28).
